Data as given in patent publication US20030144347A1, “Method for treating autoimmune disease” (priority 2001, published 2003).

Columns and labels:
[1] = system: patient with rapid mood swings and severe intense itching; assay: Case report: patient with rapid mood swings and severe intense itching; format: in vivo, human; conditions: Example 19; 12.5 mg at bedtime increased weekly until 50 mg
Protocol: A patient presented with rapid mood swings and a complaint of severe intense itching from clothing tags and some clothing, which began over twenty years ago. They were begun on gabapenten which was increased to 300 mg qid. […] Their itching was unchanged. They were begun on Topamax 12.5 mg at bedtime which was increased weekly by 12.5 mg until 50 mg.

human epilepsy = conditions: clinical trials; cited from earlier work
[2] = system: patient suffering from rheumatoid arthritis; assay: Case reports: patients suffering from rheumatoid arthritis; format: in vivo, human
Protocol: A patient suffering from rheumatoid arthritis was administered 25 mg per day of topiramate with an increase every 10 days by 25 mg until 25 mg, 3 times per day, was achieved. The patient previously took 3 or 4 tablets per day of lortab, seven 2.5 mg tablets of methotrexate once a week, 200 mg per day of minocycline and 10 mg per day of prednisone.
An adolescent patient suffering from rheumatoid arthritis began taking 15 mg per day of topiramate for one week, which was then increased by 15 mg weekly until 45 mg per day, in three divided dosages of 15 mg each, was reached. The patient previously took 3 to 5 mg of prednisone daily.
A patient suffering from rheumatoid arthritis with a positive rheumatic factor about 3 decades earlier, at which time they also experienced polyarthritis and Renaud's phenomena, was treated with prednisone 40 mg per day for six months and was then weaned off the prednisone after one year. In the ensuing years, psoriasis developed on both elbows which was worse in the winter. They were an avid golfer and experienced painful swelling and stiffness of both wrists and hands, especially the left, and back pain and stiffness. […] They were begun on Topamax 15 mg a day which was increased weekly by 15 mg until 45 mg per day was taken in divided doses.

[3] = system: patient suffering from ulcerative colitis; assay: Case reports: patients suffering from ulcerative colitis; format: in vivo, human; conditions: Example 9
Protocol: A patient suffering from ulcerative colitis began taking 25 mg per day of topiramate, with dosage increases of 25 mg/day each week. […] By the end of nine months, the patient's weight was decreased to 270 lbs from 315 lbs. Their disease was no longer affecting their ability to go to or stay at work. Their colonoscopy exam was negative for the first time since the onset of their illness.

[4] = system: rodent models of epilepsy; conditions: several rodent models of epilepsy; cited from earlier work
[5] = system: animal model of kindled epilepsy; conditions: cited from earlier work
[6] = system: patient suffering from systemic lupus erythematosis; assay: Case report: patient suffering from systemic lupus erythematosis; format: in vivo, human; conditions: Example 11
Protocol: A young adolescent patient suffering from systemic lupus erythematosis and taking 30 mg bid of prednisone began taking 15 mg per day of topiramate. […] The prednisone was reduced to 25 mg per day after 4 weeks and to 10 mg after 6 weeks. This benefit has continued for over 6 months.

CC1(C)O[C@@H]2[C@@H](CO[C@@]3(COS(N)(=O)=O)OC(C)(C)O[C@@H]23)O1 [topiramate, 2,3:4,5-bis-O-(1-methylethylidence)-β-D-fructopyranose sulfamate]
itching [1]: no itching at all
mood [1]: true stabilization of my mood
efficacy in simple and complex partial seizures and secondarily generalized seizures (human epilepsy): effective as adjunctive therapy or as monotherapy
duration of benefit ([2]; Example 3): 15 weeks
mobility ([2]; Example 3, 25 mg, 3 times per day): increased mobility
pain (patient reported) ([2]; Example 3, 25 mg, 3 times per day, lortab and minocycline discontinued, prednisone and methotrexate reduced): significant decrease in pain
decrease in pain ([2]; Example 4, adolescent patient, 15 mg twice a day): 40-50%
reduction in pain ([2]; Example 4, adolescent patient, 45 mg per day): 70%
duration of benefits ([2]; Example 4, prednisone decreased to 0.5 mg/day): four
psoriasis ([2]; Example 17, 45 mg per day in divided doses): improvement in their psoriasis
joint pain in both hands, self-rating scale of 0 to 10 ([2]; Example 17, 45 mg per day in divided doses, decreased from 6): 2
colonoscopy exam [3]: negative
symptoms ([3]; 50 mg twice a day): decreased intensity of symptoms
symptoms ([3]; 75 mg twice a day): decreased frequency of symptoms
diarrhea ([3]; 100 mg twice a day, asakol dosage reduced): diarrhea had stopped
seizures [4]: effectively block seizures
seizures [5]: effectively block seizures
clinical change ([6]; 15 mg in the morning and 30 mg every evening): further improvement
clinical change ([6]; 15 mg per day, after seven days): minimal change
carbohydrate craving ([6]; 15 mg twice a day): markedly reduced
facial and body rash, headaches, joint pain ([6]; 15 mg twice a day): began to subside, headaches disappeared and joint pain greatly diminished
energy and mood ([6]; 15 mg twice a day, over the next two weeks): striking improvement in energy and mood
duration of benefit ([6]; prednisone reduced to 10 mg): over 6 months
